Drawing on ChEMBL document CHEMBL4699531, “Defining the Familial Fold of the Vicilin-Buried Peptide Family” (J Nat Prod, 2020), this text covers IC50 and inhibition for 3 compounds.

Test [1] can be described thus: Inhibition of bovine pancreas trypsin using N-alpha-benzoyl-L-arginine-pnitroanilide substrate preincubated for 15 mins followed by substrate addition and measured after 30 mins. Format: tissue-based, Bos taurus.
For test [2], the species on record is Bos taurus. Description: Inhibition of bovine pancreas trypsin at 0.01 to 8 uM using N-alpha-benzoyl-L-arginine-pnitroanilide substrate preincubated for 15 mins followed by substrate addition and measured after 30 mins. Format: tissue-based. The settings on record: dose microM 0.01-8, time 45.0 min.

Activity calls are given as the source filed them. The calls are words filed in the database; no cut-off is given here. Bridge positions count the residues as written; N and C are the ends. Square brackets hold non-standard residues; d marks the D form. Peptide text beside a SMILES is read from it. pGlu = O=C1CC[C@@H](C(=O)O)N1

With `CSCC[C@@H]1NC(=O)[C@H](C(C)C)NC(=O)[C@H](CCCCN)NC(=O)[C@@H](NC(=O)[C@H](CCC(N)=O)NC(=O)[C@H](CCC(=O)O)NC(=O)[C@@H]2CCCN2C(=O)[C@H](CC(=O)O)NC(=O)[C@@H](NC(=O)[C@@H](N)CC(N)=O)[C@@H](C)O)CSSC[C@@H](C(=O)N[C@@H](CCC(=O)O)C(=O)N[C@@H](CCCCN)C(=O)N[C@@H](CCC(=O)O)C(=O)N[C@@H](Cc2c[nH]cn2)C(=O)N[C@@H](CC(=O)O)C(=O)O)NC(=O)[C@H](CCC(N)=O)NC(=O)[C@H](CC(=O)O)NC(=O)[C@H](CC(C)C)NC(=O)[C@@H]2CSSC[C@H](NC1=O)C(=O)N[C@@H](Cc1ccc(O)cc1)C(=O)N[C@@H](C)C(=O)N[C@@H](CCC(N)=O)C(=O)N[C@@H](CCCNC(=N)N)C(=O)N[C@@H](Cc1c[nH]cn1)C(=O)N[C@@H](CO)C(=O)N[C@@H](CO)C(=O)N1CCC[C@H]1C(=O)N[C@@H](CCC(=O)O)C(=O)N[C@@H](CC(C)C)C(=O)N[C@@H](CC(C)C)C(=O)N[C@@H](CCCNC(=N)N)C(=O)N[C@@H](CCCNC(=N)N)C(=O)N2` (H-NTDPEQCKVMCYAQRHSSPELLRRCLDQCEKEHD-OH; disulfide 7-29, 11-25), the IC50 in test [1] turned out to be 400 nM.

Turning to `CC[C@H](C)[C@H](NC(=O)[C@H](CCC(N)=O)NC(=O)[C@H](CCCNC(=N)N)NC(=O)[C@H](CCCCN)NC(=O)[C@@H]1CCCN1)C(=O)N[C@@H](CCC(=O)O)C(=O)N[C@@H](CCCNC(=N)N)C(=O)N[C@H]1CSSC[C@@H](C(=O)N[C@@H](CCC(=O)O)C(=O)N[C@@H](CCC(=O)O)C(=O)N[C@@H](CCC(N)=O)C(=O)N[C@@H](CCC(=O)O)C(=O)N[C@@H](CCC(=O)O)C(=O)N[C@@H](CCCCN)C(=O)N[C@@H](CCCNC(=N)N)C(=O)NCC(=O)N[C@@H](CCC(N)=O)C(=O)NCC(=O)N[C@@H](CC(=O)O)C(=O)O)NC(=O)[C@H](CCC(N)=O)NC(=O)[C@H](CCCNC(=N)N)NC(=O)[C@H](C(C)C)NC(=O)[C@@H]2CSSC[C@H](NC(=O)[C@H](CCC(=O)O)NC(=O)[C@H](CCC(N)=O)NC(=O)[C@H](CCCCN)NC1=O)C(=O)N[C@@H](CCCNC(=N)N)C(=O)N[C@@H](CCC(=O)O)C(=O)N[C@@H](CO)C(=O)N[C@@H](CCCNC(=N)N)C(=O)N[C@@H](CCC(N)=O)C(=O)NCC(=O)N[C@@H](CCC(=O)O)C(=O)N[C@@H](CCC(N)=O)C(=O)N[C@@H](CCC(N)=O)C(=O)N[C@@H](CCC(=O)O)C(=O)N[C@@H](CCCNC(=N)N)C(=O)N[C@@H](CCC(N)=O)C(=O)N2` (H-PKRQIERCKQECRESRQGEQQERQCVRQCEEQEEKRGQGD-OH; disulfide 8-29, 12-25), in test [2], the inhibition entry is “inactive”.

For `CC[C@H](C)[C@H](NC(=O)[C@H](CCC(=O)O)NC(=O)[C@@H](NC(=O)[C@H](CCC(=O)O)NC(=O)[C@H](CCCCN)NC(=O)[C@@H]1CCC(=O)N1)[C@@H](C)O)C(=O)N[C@H]1CSSC[C@@H](C(=O)N[C@@H](CCC(=O)O)C(=O)N[C@@H](CCC(=O)O)C(=O)N[C@@H](CCCNC(=N)N)C(=O)N[C@@H](CC(C)C)C(=O)N[C@@H](CCCNC(=N)N)C(=O)N[C@@H](CC(=O)O)C(=O)O)NC(=O)[C@H](CCC(=O)O)NC(=O)[C@H](CCC(N)=O)NC(=O)[C@H](CCC(N)=O)NC(=O)[C@@H]2CSSC[C@H](NC(=O)[C@H](Cc3c[nH]c4ccccc34)NC(=O)[C@H](CCC(N)=O)NC(=O)[C@H](CCCNC(=N)N)NC1=O)C(=O)N[C@@H](CCC(N)=O)C(=O)N[C@@H](C(C)C)C(=O)N[C@@H](CCSC)C(=O)N[C@@H](CCCCN)C(=O)N1CCC[C@H]1C(=O)N[C@@H](CCC(N)=O)C(=O)NCC(=O)NCC(=O)N[C@@H](CCC(=O)O)C(=O)N[C@@H](CCC(=O)O)C(=O)N[C@@H](CCC(N)=O)C(=O)N[C@@H](CCCNC(=N)N)C(=O)N[C@@H](CCCNC(=N)N)C(=O)N2` ([pGlu]KETEICRQWCQVMKPQGGEEQRRCQQECEERLRD-OH; disulfide 7-29, 11-25), in test [2], the inhibition entry is “inactive”.
